# Test results published in ChEMBL document CHEMBL5608207, “Development of narrow-spectrum topoisomerase-targeting antibacterials against mycobacteria” (Eur J Med Chem, 2024).
# Activity calls are given as the source filed them. The rule behind the calls is not given here.
# Columns and labels:
# [1] = system: Mycobacteroides abscessus; test: Antimycobacterial activity against Mycobacterium abscessus RIVM incubated for 1 day by resazurin reduction microplate assay; format: functional; conditions: 24 h
# [2] = system: Mycolicibacterium smegmatis; test: Antimycobacterial activity against Mycobacterium smegmatis MC2 incubated for 2 days by resazurin reduction microplate assay; format: functional; conditions: MC2, 48 h, time 2 day
# [3] = system: Mycobacterium tuberculosis; test: Antimycobacterial activity against Mycobacterium tuberculosis H37Rv ATCC 25618 assessed as reduction in viability incubated for 6 days by resazurin reduction microplate assay; format: functional; conditions: H37Rv ATCC 25618, 144 h, time 6 day
# [4] = target: DNA topoisomerase 2-alpha (Homo sapiens) (UniProt P11388); test: Inhibition of human DNA topoisomerase II alpha assessed as residual activity at 100 uM using supercoiled pNO1 plasmid as substrate incubated for 30 mins by diamond dye staining based fluorescence microplate reader assay relative to control
# DNA topoisomerase 2-alpha (Homo sapiens), sequence (P11388 whole entry): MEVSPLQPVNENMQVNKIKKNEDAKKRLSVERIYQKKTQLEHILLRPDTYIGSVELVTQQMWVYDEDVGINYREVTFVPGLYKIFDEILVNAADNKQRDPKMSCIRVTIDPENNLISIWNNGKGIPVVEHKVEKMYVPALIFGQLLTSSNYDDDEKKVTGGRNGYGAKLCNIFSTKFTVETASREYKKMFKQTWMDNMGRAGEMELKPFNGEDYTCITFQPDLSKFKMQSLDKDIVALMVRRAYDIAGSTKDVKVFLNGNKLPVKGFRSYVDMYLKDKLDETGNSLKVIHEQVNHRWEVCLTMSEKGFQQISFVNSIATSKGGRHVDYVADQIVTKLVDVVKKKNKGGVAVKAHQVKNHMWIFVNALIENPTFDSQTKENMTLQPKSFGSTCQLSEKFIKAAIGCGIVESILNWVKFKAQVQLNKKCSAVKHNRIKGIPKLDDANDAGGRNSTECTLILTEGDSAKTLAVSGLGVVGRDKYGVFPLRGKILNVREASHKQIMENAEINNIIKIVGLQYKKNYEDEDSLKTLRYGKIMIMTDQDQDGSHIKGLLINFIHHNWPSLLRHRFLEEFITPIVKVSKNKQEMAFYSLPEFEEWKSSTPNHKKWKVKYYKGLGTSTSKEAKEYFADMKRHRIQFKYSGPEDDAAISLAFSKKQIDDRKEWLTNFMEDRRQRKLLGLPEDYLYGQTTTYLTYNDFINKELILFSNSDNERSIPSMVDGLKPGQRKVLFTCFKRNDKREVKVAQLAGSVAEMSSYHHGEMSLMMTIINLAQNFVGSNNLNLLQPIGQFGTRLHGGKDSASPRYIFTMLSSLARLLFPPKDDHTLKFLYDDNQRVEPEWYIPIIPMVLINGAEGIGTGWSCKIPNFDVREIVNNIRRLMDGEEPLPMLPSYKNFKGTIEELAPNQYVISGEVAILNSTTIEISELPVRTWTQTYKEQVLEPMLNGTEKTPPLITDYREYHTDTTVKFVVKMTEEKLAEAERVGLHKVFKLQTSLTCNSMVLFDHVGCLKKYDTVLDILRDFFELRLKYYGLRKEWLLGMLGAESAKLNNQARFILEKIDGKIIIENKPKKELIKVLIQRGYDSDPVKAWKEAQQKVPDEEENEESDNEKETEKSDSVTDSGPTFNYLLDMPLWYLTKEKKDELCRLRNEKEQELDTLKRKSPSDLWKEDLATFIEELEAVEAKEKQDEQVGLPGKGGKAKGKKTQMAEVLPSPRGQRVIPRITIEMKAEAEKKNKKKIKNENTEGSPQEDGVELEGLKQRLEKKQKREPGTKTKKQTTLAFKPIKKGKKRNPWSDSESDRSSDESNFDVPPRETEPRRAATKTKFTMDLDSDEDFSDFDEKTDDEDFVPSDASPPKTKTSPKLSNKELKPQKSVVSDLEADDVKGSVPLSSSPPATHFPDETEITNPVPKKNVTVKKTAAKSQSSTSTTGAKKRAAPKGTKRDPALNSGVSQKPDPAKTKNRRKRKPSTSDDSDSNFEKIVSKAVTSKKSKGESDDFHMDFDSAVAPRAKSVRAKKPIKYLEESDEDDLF
# Enterobacter cloacae = test: Antibacterial activity against Enterobacter cloacae ATCC13047 incubated for 18 hrs by serial broth microdilution method; format: functional
# [5] = target: DNA topoisomerase 2-alpha (Homo sapiens) (UniProt P11388); test: Inhibition of human DNA topoisomerase II alpha assessed as residual activity at 10 uM using supercoiled pNO1 plasmid as substrate incubated for 30 mins by diamond dye staining based fluorescence microplate reader assay relative to control
# Pseudomonas aeruginosa [6] = test: Antibacterial activity against Pseudomonas aeruginosa ATCC 27853 incubated for 18 hrs by serial broth microdilution method; format: functional
# Acinetobacter baumannii [7] = test: Antibacterial activity against Acinetobacter baumannii ATCC17978 incubated for 18 hrs by serial broth microdilution method; format: functional
# Klebsiella pneumoniae = test: Antibacterial activity against Klebsiella pneumoniae ATCC10031 incubated for 18 hrs by serial broth microdilution method; format: functional
# Escherichia coli [8] = test: Antibacterial activity against Escherichia coli ATCC 25922 incubated for 18 hrs by serial broth microdilution method; format: functional
# Staphylococcus aureus = test: Antibacterial activity against Staphylococcus aureus ATCC 29213 incubated for 18 hrs by serial broth microdilution method; format: functional
# [9] = system: Mycobacterium tuberculosis; test: (§1) Antimycobacterial activity against GFP-expressing Mycobacterium tuberculosis H37Rv infected in PMA-treated THP-1 cells assessed as number of viable macrophages at 10 uM pre-infected for 3 hrs prior to gentamycin addition for 1 hr followed by washout and compound addition measured after 4 days by fluorescence microscopic analysis; format: functional
# [10] = system: Mycobacterium tuberculosis; test: as §1, with “bacterial viability” for “number of viable macrophages”, “analysis (reference value: 100%)” for “analysis”; format: functional; conditions: time 4 day
# Acinetobacter baumannii [11] = test: Antibacterial activity against Acinetobacter baumannii; format: functional
# Pseudomonas aeruginosa [12] = test: Antibacterial activity against Pseudomonas aeruginosa; format: functional
# THP-1 [13] = test: Cytotoxicity against human THP-1 cells pretreated with PMA for 48 hrs followed by washout and compound addition for 5 days by resazurin sodium salt method; format: toxicity, cell-based; conditions: thp-1, 120 h, time 5 day
# [14] = Inhibition of Mycobacterium tuberculosis DNA gyrase B
# [15] = system: Mycobacterium tuberculosis; test: Antimycobacterial activity against Mycobacterium tuberculosis H37Rv ATCC 25618 assessed as reduction in viability at 5 uM incubated for 6 days by resazurin reduction microplate assay; format: functional; conditions: time 6 day
# THP-1 [16] = test: Cytotoxicity against replicating human THP-1 cells; format: toxicity, cell-based
# [17] = system: Mycobacterium tuberculosis; test: Antimycobacterial activity against GFP-expressing Mycobacterium tuberculosis H37Rv infected in PMA-treated THP-1 cells assessed as increase in number of surviving macrophages at 10 to 30 uM pre-infected for 3 hrs prior to gentamycin addition for 1 hr followed by washout and compound addition measured after 4 days by fluorescence microscopic analysis; format: functional, organism-based; conditions: dose 10-30 µM, time 4.0 day
# [18] = system: Mycobacterium tuberculosis; test: as §1, with “bacterial viability” for “number of viable macrophages at 10 uM”; format: functional, organism-based; conditions: dose 1-30 µM, time 4.0 day
# [19] = Acute toxicity in zebrafish embryo assessed as change in behavior upto 5 mM measured for 4 days; design: species or system Danio rerio; conditions: in vivo, 96 h, 5000 µM, time 4 day
# THP-1 [20] = test: Cytotoxicity against replicating human THP-1 cells upto 40 uM; format: toxicity, cell-based; conditions: thp-1, 40 µM
# THP-1 [21] = test: Cytotoxicity against human THP-1 cells assessed as reduction in viability at 40 uM pretreated with PMA for 48 hrs followed by washout and compound addition for 5 days by resazurin sodium salt method; format: toxicity, cell-based; conditions: thp-1, 120 h, time 5 day
# [22] = Inhibition of Mycobacterium smegmatis DNA gyrase using […] DNA as substrate incubated for 30 mins by gel based method; design: species or system Mycolicibacterium smegmatis
# [23] = Inhibition of Escherichia coli DNA topoisomerase IV […] using supercoiled pNO1 as substrate measured after 30 mins by SybrGOLD staining based fluorescence microplate reader analysis
# [24] = Acute toxicity in zebrafish embryo assessed as effect on embryo development upto 5 mM measured for 4 days; design: species or system Danio rerio; conditions: in vivo, 96 h, 5000 µM, time 4 day
# Anaerostipes hadrus = test: Antibacterial activity against Anaerostipes hadrus DSM 3319 measured at 15 mins interval for 24 hrs by broth microdilution method; format: functional
# Escherichia coli [25] = test: Antibacterial activity against Escherichia coli ATCC 25922 harboring deltaTolC mutant incubated for 18 hrs by serial broth microdilution method; format: functional
# DNA gyrase = DNA gyrase (Escherichia coli, UniProt P0AES4+P0AES6); test: Inhibition of Escherichia coli DNA gyrase using relaxed pNO1 as substrate measured after 30 mins by SybrGOLD staining based fluorescence microplate reader analysis; format: protein-complex assay
# hERG (KCNH2) [26] = target: T1, hERG (KCNH2) (Homo sapiens, UniProt Q12809); test: Inhibition of human ERG expressed in HEK293 cells at 50 uM by whole-cell patch clamp method relative to control; format: toxicity, cell-based; conditions: HEK293 cells that express hERG
# T1 sequence (Q12809 whole entry): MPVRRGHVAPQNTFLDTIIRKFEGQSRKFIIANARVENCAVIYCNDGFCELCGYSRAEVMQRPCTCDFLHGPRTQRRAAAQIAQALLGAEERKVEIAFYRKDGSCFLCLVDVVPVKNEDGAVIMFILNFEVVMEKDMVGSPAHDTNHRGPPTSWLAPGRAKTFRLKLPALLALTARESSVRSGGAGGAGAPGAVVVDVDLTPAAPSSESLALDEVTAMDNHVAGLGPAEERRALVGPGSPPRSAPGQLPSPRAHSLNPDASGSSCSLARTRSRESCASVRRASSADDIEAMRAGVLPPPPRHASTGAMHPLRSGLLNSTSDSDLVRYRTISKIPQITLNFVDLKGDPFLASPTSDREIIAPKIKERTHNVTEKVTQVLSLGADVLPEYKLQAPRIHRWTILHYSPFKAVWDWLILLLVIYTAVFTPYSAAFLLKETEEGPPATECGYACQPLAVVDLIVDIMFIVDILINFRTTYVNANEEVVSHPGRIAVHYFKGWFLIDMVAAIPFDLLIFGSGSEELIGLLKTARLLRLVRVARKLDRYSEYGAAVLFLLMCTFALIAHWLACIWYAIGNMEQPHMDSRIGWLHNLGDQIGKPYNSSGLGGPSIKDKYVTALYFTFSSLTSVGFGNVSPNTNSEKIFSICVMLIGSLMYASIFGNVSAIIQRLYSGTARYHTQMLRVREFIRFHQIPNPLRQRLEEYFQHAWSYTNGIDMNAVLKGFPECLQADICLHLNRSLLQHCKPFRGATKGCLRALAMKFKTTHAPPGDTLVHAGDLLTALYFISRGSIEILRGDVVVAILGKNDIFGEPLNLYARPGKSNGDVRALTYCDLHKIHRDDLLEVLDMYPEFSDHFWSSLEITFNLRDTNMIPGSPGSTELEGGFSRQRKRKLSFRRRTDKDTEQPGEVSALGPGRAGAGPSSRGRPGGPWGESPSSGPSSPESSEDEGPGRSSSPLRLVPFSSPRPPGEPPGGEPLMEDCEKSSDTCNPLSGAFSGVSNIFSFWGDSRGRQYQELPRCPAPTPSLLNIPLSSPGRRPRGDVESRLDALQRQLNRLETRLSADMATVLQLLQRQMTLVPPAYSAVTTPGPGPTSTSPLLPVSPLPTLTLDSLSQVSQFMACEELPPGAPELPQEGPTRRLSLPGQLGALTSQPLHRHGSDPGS
# hERG (KCNH2) [27] = target: T1, hERG (KCNH2); test: Inhibition of human ERG expressed in HEK293 cells at 10 uM by whole-cell patch clamp method relative to control; format: toxicity, cell-based; conditions: HEK293 cells that express hERG
# MCF7 = test: Cytotoxicity against human MCF7 cells assessed as residual activity at 50 uM incubated for 72 hrs by MTS assay; format: functional
# [28] = Kinetic solubility of compound in PBS at 100 uM incubated for 20 hrs in shaker by LC-MS/MS analysis; format: physicochemical; conditions: read-out: Kinetic_solubility
# [29] = target: DNA gyrase subunit A/DNA gyrase subunit B (Mycobacterium tuberculosis (strain ATCC 25618 / H37Rv), UniProt P9WG45+P9WG47); test: Inhibition of Mycobacterium tuberculosis DNA gyrase using […] DNA as substrate incubated for 30 mins by gel based method; format: protein-complex assay
# DNA gyrase subunit A/DNA gyrase subunit B, sequence (P9WG45 whole entry): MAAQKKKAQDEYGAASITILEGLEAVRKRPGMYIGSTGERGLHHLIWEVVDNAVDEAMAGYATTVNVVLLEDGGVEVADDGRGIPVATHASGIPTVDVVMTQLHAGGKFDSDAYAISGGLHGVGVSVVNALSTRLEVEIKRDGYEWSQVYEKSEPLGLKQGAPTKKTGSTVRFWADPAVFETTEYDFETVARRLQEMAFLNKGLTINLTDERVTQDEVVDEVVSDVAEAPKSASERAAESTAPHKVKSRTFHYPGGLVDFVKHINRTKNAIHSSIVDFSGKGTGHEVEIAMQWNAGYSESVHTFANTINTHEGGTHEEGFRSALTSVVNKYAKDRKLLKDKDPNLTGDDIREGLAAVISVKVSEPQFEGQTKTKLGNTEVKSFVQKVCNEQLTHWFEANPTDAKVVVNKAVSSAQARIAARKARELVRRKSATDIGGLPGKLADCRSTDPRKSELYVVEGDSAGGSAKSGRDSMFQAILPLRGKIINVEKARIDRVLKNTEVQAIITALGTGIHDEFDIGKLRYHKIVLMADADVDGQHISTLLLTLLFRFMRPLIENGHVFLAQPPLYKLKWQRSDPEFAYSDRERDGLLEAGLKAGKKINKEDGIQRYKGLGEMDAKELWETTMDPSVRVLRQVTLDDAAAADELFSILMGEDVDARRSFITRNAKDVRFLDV
# DNA gyrase subunit A/DNA gyrase subunit B, sequence (P9WG47 whole entry): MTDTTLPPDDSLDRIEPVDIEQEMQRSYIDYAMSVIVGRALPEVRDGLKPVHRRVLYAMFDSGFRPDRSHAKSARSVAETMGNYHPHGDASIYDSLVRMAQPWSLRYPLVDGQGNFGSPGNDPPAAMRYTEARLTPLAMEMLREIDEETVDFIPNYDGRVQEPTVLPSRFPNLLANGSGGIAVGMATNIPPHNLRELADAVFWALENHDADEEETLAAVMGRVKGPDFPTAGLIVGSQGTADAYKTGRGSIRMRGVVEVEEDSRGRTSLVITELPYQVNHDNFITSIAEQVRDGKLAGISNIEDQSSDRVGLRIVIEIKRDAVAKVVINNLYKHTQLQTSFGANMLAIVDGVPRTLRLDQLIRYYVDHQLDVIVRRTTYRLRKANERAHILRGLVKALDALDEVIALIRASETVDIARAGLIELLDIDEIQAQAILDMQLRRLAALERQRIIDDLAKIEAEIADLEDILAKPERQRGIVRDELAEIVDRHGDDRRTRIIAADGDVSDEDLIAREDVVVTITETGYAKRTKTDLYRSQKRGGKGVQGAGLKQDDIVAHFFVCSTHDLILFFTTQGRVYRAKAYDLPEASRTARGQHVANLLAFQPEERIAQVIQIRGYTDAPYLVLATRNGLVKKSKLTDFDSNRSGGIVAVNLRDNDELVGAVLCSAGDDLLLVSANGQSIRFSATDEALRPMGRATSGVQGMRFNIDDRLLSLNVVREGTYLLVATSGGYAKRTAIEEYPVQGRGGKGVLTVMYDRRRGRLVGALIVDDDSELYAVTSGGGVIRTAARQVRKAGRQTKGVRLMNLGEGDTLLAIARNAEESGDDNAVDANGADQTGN
# Segatella copri = test: Antibacterial activity against Prevotella copri DSM 18205 measured at 15 mins interval for 24 hrs by broth microdilution method; format: functional
# [30] = Acute toxicity in zebrafish embryo assessed as effect on embryo survival upto 5 mM measured for 4 days; design: species or system Danio rerio; conditions: in vivo, 96 h, 5000 µM, time 4 day
# [31] = system: Bacteroides thetaiotaomicron; test: Antibacterial activity against Bacteroides thetaiotaomicron DSM 2079 measured at 15 mins interval for 24 hrs by broth microdilution method; format: functional
smiles,measurement,setting,value
Cc1[nH]c(C(=O)Nc2nc3c(OC(CN4CCN(C)CC4)c4ccccc4)cc(C(=O)O)cc3s2)c(Cl)c1Cl (stereo not drawn),MIC90,[1],2.5 µM
same,MIC90,[2],2.5 µM
same,MIC90,[3],20 µM
Cc1[nH]c(C(=O)Nc2nc3c(OC(CN)c4ccccc4)cc(C(=O)O)cc3s2)c(Cl)c1Cl (stereo not drawn),MIC90,[1],0.63 µM
same,MIC90,[2],1.25 µM
same,MIC90,[3],1.25 µM
Cc1[nH]c(C(=O)Nc2nc3c(OC(CN4CCN(C)CC4)C4CC4)cc(C(=O)O)cc3s2)c(Cl)c1Cl (stereo not drawn),Activity,[4],99%
same,MIC90,Enterobacter cloacae,> 116 µM
same,Activity,[5],99%
same,MIC90,[1],0.63 µM
same,MIC90,[2],0.63 µM
same,MIC90,[3],5 µM
same,MIC90,Pseudomonas aeruginosa [6],> 116 µM
same,MIC90,Acinetobacter baumannii [7],> 116 µM
same,MIC90,Klebsiella pneumoniae,7 µM
same,MIC90,Escherichia coli [8],> 116 µM
same,MIC90,Staphylococcus aureus,14 µM
Cc1[nH]c(C(=O)Nc2nc3c(OC(CN4CCOCC4)C4CC4)cc(C(=O)O)cc3s2)cc1F (stereo not drawn),MIC90,Enterobacter cloacae,> 131 µM
same,MIC90,[1],1.25 µM
same,MIC90,[2],2.5 µM
same,MIC90,[3],> 20 µM
same,MIC90,Pseudomonas aeruginosa [6],> 131 µM
same,MIC90,Acinetobacter baumannii [7],> 131 µM
same,MIC90,Klebsiella pneumoniae,33 µM
same,MIC90,Escherichia coli [8],> 131 µM
same,MIC90,Staphylococcus aureus,131 µM
CO[C@H]1/C=C/O[C@@]2(C)Oc3c(C)c(O)c4c(O)c(c(/C=N/N5CCN(C)CC5)c(O)c4c3C2=O)NC(=O)/C(C)=C\C=C\[C@H](C)[C@H](O)[C@@H](C)[C@@H](O)[C@@H](C)[C@H](OC(C)=O)[C@@H]1C [RIFAMPIN],Activity,[9]; time 4 day,100%
same,Activity,[10],1.4%
Cc1[nH]c(C(=O)Nc2nc3ccc(C(=O)O)cc3s2)c(Cl)c1Cl,MIC,Acinetobacter baumannii [11],4 µg/mL
same,MIC,Pseudomonas aeruginosa [12],8 µg/mL
same,Activity,THP-1 [13],Non-Toxic
same,IC50,[14],0.0245 µM
same,Activity,[15],57%
same,Activity,[9]; time 4.0 day,inactive
same,Activity,[10],14%
same,Activity,THP-1 [16],Non-Toxic
Cc1[nH]c(C(=O)Nc2nc3c(OC(C)C4CCNCC4)cc(C(=O)O)cc3s2)c(Cl)c1Cl (stereo not drawn),Activity,[4],96%
same,Activity,[17],Active
same,Activity,[5],96%
same,Activity,[18],Dose-Dependent Effect
same,MIC90,[1],2.5 µM
same,Activity,[19],Non-Toxic
same,MIC90,[2],2.5 µM
same,Activity,THP-1 [20],Non-Toxic
same,Activity,THP-1 [21],Non-Toxic
same,MIC90,[3],0.63 µM
same,IC50,[22],0.0057 µM
same,MIC90,Pseudomonas aeruginosa [6],> 120 µM
same,IC50,[23],0.099 µM
same,Activity,[24],Non-Toxic
same,MIC,Anaerostipes hadrus,> 20 µM
same,MIC90,Escherichia coli [25],2 µM
same,MIC90,Acinetobacter baumannii [7],> 120 µM
same,MIC90,Klebsiella pneumoniae,> 120 µM
same,IC50,DNA gyrase,< 0.01 µM
same,inhibition at 50 µM,hERG (KCNH2) [26],29%
same,inhibition at 10 µM,hERG (KCNH2) [27],4.2%
same,Activity,MCF7,81%
same,"solubility kinetic at 20 h, 100 µM",[28],1 µM
same,IC50,[29],0.0041 µM
same,MIC90,Escherichia coli [8],> 120 µM
same,MIC90,Staphylococcus aureus,> 120 µM
same,MIC,Segatella copri,> 20 µM
same,Activity,[30],Non-Toxic
same,MIC,[31],> 20 µM
Cc1[nH]c(C(=O)Nc2nc3c(OC(CN4CCC(N)CC4)c4ccccc4)cc(C(=O)O)cc3s2)c(Cl)c1Cl (stereo not drawn),MIC90,[1],0.63 µM
same,MIC90,[2],0.63 µM
same,MIC90,[3],1.25 µM
same,Activity,Escherichia coli [8],Active
NNC(=O)c1ccncc1 [ISONIAZID],Activity,[10],4.9%
Cc1[nH]c(C(=O)Nc2nc3c(OC(CN4CCC(N(C)C)CC4)c4ccccc4)cc(C(=O)O)cc3s2)c(Cl)c1Cl (stereo not drawn),MIC90,[1],2.5 µM
same,MIC90,[2],5 µM
same,MIC90,[3],10 µM
